This note sets out measurements from PubChem BioAssay (NCI).

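Protocol summary: plate cells (96-well), add compound at 5 concentrations, incubate 48 h, interpolate endpoints linearly. GI50: concentration for 50% inhibition of growth. At the TGI there is no net growth.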 Some results are limits rather than exact numbers.

The first test concerns K-562 leukemia. In words: NCI anticancer screen, dose series, 48 h.
In the case of `O=C1/C(=C/c2ccccc2[N+](=O)[O-])Cc2ccccc21`, the GI50 is 3.4 µM and the TGI is greater than 100 µM.

For a further test, the system named is LOX IMVI melanoma. The test can be described thus: NCI anticancer screen, dose series, 48 h.
As for `COc1cc(N2C(=O)[C@H](O)C2c2ccc(SC)cc2)cc(OC)c1OC` (some centres undefined), the GI50 was less than 0.01 µM and the TGI is greater than 100 µM.
With `O=C1OCC2=C1C(c1ccc(Cl)c(Cl)c1)c1cc3c(cc1N2CCO)OCCO3` (centres undefined), the GI50 was 0.316 µM and the TGI was 10.8 µM.
`O=C1c2ccccc2-c2cc([N+](=O)[O-])c([N+](=O)[O-])cc21` registered a TGI of 2.12 µM.
In the case of `CC(=O)OC12C=C(C)C(C(C)C1)C1C(=O)N(CCN3CCOCC3)C(=O)C12` (centres undefined), the GI50 is greater than 100 µM and the TGI was greater than 100 µM.
As to `CO/N=C(\COc1ccc2c(c1)[nH]c1ccccc12)c1ccc(F)cc1`, the GI50 was greater than 100 µM and the TGI was greater than 100 µM.
Regarding `CN(C)CCCn1c(=O)c2ccccc2c2ccccc21`, the GI50 was 5.13 µM and the TGI came out at 44 µM.
`O=C1OC(=O)C(=C\c2ccc3c(c2)OCO3)/C1=C/c1ccc2c(c1)OCO2`: the TGI was greater than 100 µM.
Regarding `COc1ccc(-c2[nH]c3ccccc3c2-c2ccc(OC)cc2)cc1`, the GI50 is 3.77 µM and the TGI worked out at 14.8 µM.
For the molecule `O=C(/C=C\c1cccc([N+](=O)[O-])c1)/C=C/c1cccc([N+](=O)[O-])c1`, the GI50 is 1.73 µM and the TGI came out at 4.56 µM.
In the case of `O=C1c2cccnc2C(=O)c2c1c(C(=O)NCCCN1CCCCC1)c1ccccn21`, the GI50 was 0.49 µM and the TGI was 2.03 µM.
`COc1ccccc1-c1cc(=O)c2cc(C)cnc2[nH]1` displayed a TGI greater than 100 µM.
Take `OCC1OC(n2cnc3c(N/N=C\c4ccccn4)ncnc32)C(O)C1O` (centres undefined): the GI50 is 0.0971 µM.
Turning to `COc1cc2c(cc1C1COc3cc4occc4cc3C1=O)OCO2` (centres undefined), the TGI was greater than 100 µM.
In the case of `O=C1/C(=C/c2ccccc2[N+](=O)[O-])Cc2ccccc21`, the GI50 is 1.88 µM and the TGI came to 4.39 µM.

For another test, the system named is MDA-MB-231 breast. The test can be described thus: NCI anticancer screen, dose series, 48 h.
On to `COc1cc(N2C(=O)[C@H](O)C2c2ccc(SC)cc2)cc(OC)c1OC` (some centres undefined), for which the GI50 was 0.0235 µM and the TGI was greater than 100 µM.
As for `O=C1OCC2=C1C(c1ccc(Cl)c(Cl)c1)c1cc3c(cc1N2CCO)OCCO3` (centres undefined), the GI50 was 0.833 µM and the TGI amounted to 7.59 µM.
`O=C1c2ccccc2-c2cc([N+](=O)[O-])c([N+](=O)[O-])cc21` displayed a TGI of 3.33 µM.
On to `CC(=O)OC12C=C(C)C(C(C)C1)C1C(=O)N(CCN3CCOCC3)C(=O)C12` (centres undefined), for which the GI50 was greater than 100 µM and the TGI was greater than 100 µM.
With `CO/N=C(\COc1ccc2c(c1)[nH]c1ccccc12)c1ccc(F)cc1`, the GI50 was 20.1 µM and the TGI is greater than 100 µM.
`CN(C)CCCn1c(=O)c2ccccc2c2ccccc21`: the GI50 is 22.3 µM and the TGI is 62.7 µM.
The molecule `O=C1OC(=O)C(=C\c2ccc3c(c2)OCO3)/C1=C/c1ccc2c(c1)OCO2` gave a TGI greater than 100 µM.
Take `COc1ccc(-c2[nH]c3ccccc3c2-c2ccc(OC)cc2)cc1`: the GI50 was 4.69 µM and the TGI is 23.5 µM.
For `O=C(/C=C\c1cccc([N+](=O)[O-])c1)/C=C/c1cccc([N+](=O)[O-])c1`, in that order: 14.4 µM and greater than 100 µM.
With `O=C1c2cccnc2C(=O)c2c1c(C(=O)NCCCN1CCCCC1)c1ccccn21`, the GI50 was 0.562 µM and the TGI worked out at 7.23 µM.
Regarding `COc1ccccc1-c1cc(=O)c2cc(C)cnc2[nH]1`, the TGI is greater than 100 µM.
In the case of `OCC1OC(n2cnc3c(N/N=C\c4ccccn4)ncnc32)C(O)C1O` (centres undefined), the GI50 was 0.0781 µM and the TGI is greater than 57.3 µM.
The molecule `COc1cc2c(cc1C1COc3cc4occc4cc3C1=O)OCO2` (centres undefined) registered a TGI greater than 100 µM.
For the molecule `O=C1/C(=C/c2ccccc2[N+](=O)[O-])Cc2ccccc21`, the GI50 was 1.7 µM and the TGI is 6.2 µM.

The next test deals with RXF 393 renal. The test can be described thus: NCI anticancer screen, dose series, 48 h.
As to `COc1cc(N2C(=O)[C@H](O)C2c2ccc(SC)cc2)cc(OC)c1OC` (some centres undefined), the GI50 is less than 0.01 µM and the TGI is greater than 100 µM.
For `O=C1OCC2=C1C(c1ccc(Cl)c(Cl)c1)c1cc3c(cc1N2CCO)OCCO3` (centres undefined), in that order: 0.116 µM and 0.751 µM.
Regarding `O=C1c2ccccc2-c2cc([N+](=O)[O-])c([N+](=O)[O-])cc21`, the TGI was 2.64 µM.
As for `CO/N=C(\COc1ccc2c(c1)[nH]c1ccccc12)c1ccc(F)cc1`, the GI50 was 27.6 µM and the TGI is greater than 100 µM.
Taken in the same sequence, the figures for `CN(C)CCCn1c(=O)c2ccccc2c2ccccc21` were 12.5 µM and 26.7 µM.
In the case of `O=C1OC(=O)C(=C\c2ccc3c(c2)OCO3)/C1=C/c1ccc2c(c1)OCO2`, the TGI is greater than 100 µM.
`O=C(/C=C\c1cccc([N+](=O)[O-])c1)/C=C/c1cccc([N+](=O)[O-])c1`: the GI50 was 2.55 µM and the TGI came to 6.57 µM.
Taken in the same sequence, the figures for `O=C1c2cccnc2C(=O)c2c1c(C(=O)NCCCN1CCCCC1)c1ccccn21` were 1.28 µM and 3.4 µM.
Take `COc1ccccc1-c1cc(=O)c2cc(C)cnc2[nH]1`: the TGI was greater than 100 µM.
`OCC1OC(n2cnc3c(N/N=C\c4ccccn4)ncnc32)C(O)C1O` (centres undefined): the GI50 was 0.275 µM and the TGI amounted to 2.45 µM.
With `COc1cc2c(cc1C1COc3cc4occc4cc3C1=O)OCO2` (centres undefined), the TGI was greater than 100 µM.
For the molecule `O=C1/C(=C/c2ccccc2[N+](=O)[O-])Cc2ccccc21`, the GI50 is 1.45 µM and the TGI was found to be 2.99 µM.

The test system of a further test is SNB-75 CNS. In words: NCI anticancer screen, dose series, 48 h.
On to `COc1cc(N2C(=O)[C@H](O)C2c2ccc(SC)cc2)cc(OC)c1OC` (some centres undefined), for which the GI50 was less than 0.01 µM and the TGI was greater than 100 µM.
Consider `O=C1OCC2=C1C(c1ccc(Cl)c(Cl)c1)c1cc3c(cc1N2CCO)OCCO3` (centres undefined), for which the GI50 was 0.128 µM and the TGI stood at 9.2 µM.
Molecule `O=C1c2ccccc2-c2cc([N+](=O)[O-])c([N+](=O)[O-])cc21` yielded a TGI of 3.39 µM.
For the molecule `CC(=O)OC12C=C(C)C(C(C)C1)C1C(=O)N(CCN3CCOCC3)C(=O)C12` (centres undefined), the GI50 is greater than 100 µM and the TGI is greater than 100 µM.
Turning to `CO/N=C(\COc1ccc2c(c1)[nH]c1ccccc12)c1ccc(F)cc1`, the GI50 was 9.17 µM and the TGI stood at 89.6 µM.
Take `CN(C)CCCn1c(=O)c2ccccc2c2ccccc21`: the GI50 was 13.9 µM and the TGI was 28.6 µM.
Consider `COc1ccc(-c2[nH]c3ccccc3c2-c2ccc(OC)cc2)cc1`, for which the GI50 was 1.47 µM and the TGI stood at 6.61 µM.
Taken in the same sequence, the figures for `O=C(/C=C\c1cccc([N+](=O)[O-])c1)/C=C/c1cccc([N+](=O)[O-])c1` were 13.3 µM and 66.6 µM.
For `O=C1c2cccnc2C(=O)c2c1c(C(=O)NCCCN1CCCCC1)c1ccccn21`, in that order: 1.36 µM and 2.86 µM.
With `OCC1OC(n2cnc3c(N/N=C\c4ccccn4)ncnc32)C(O)C1O` (centres undefined), the GI50 is 0.613 µM and the TGI was determined as 12.9 µM.
As for `COc1cc2c(cc1C1COc3cc4occc4cc3C1=O)OCO2` (centres undefined), the TGI was greater than 100 µM.

A further test has as its system UO-31 renal. The test can be described thus: NCI anticancer screen, dose series, 48 h.
With `O=C1OCC2=C1C(c1ccc(Cl)c(Cl)c1)c1cc3c(cc1N2CCO)OCCO3` (centres undefined), the GI50 is 0.256 µM and the TGI was 30.6 µM.
On to `O=C1c2ccccc2-c2cc([N+](=O)[O-])c([N+](=O)[O-])cc21`, for which the TGI was found to be 3.07 µM.
In the case of `CC(=O)OC12C=C(C)C(C(C)C1)C1C(=O)N(CCN3CCOCC3)C(=O)C12` (centres undefined), the GI50 was greater than 100 µM and the TGI was greater than 100 µM.
As to `CO/N=C(\COc1ccc2c(c1)[nH]c1ccccc12)c1ccc(F)cc1`, the GI50 was greater than 100 µM and the TGI is greater than 100 µM.
In turn, `O=C1OC(=O)C(=C\c2ccc3c(c2)OCO3)/C1=C/c1ccc2c(c1)OCO2` gave a TGI greater than 100 µM.
In the case of `COc1ccc(-c2[nH]c3ccccc3c2-c2ccc(OC)cc2)cc1`, the GI50 is 3.29 µM and the TGI is 15.5 µM.
For `O=C(/C=C\c1cccc([N+](=O)[O-])c1)/C=C/c1cccc([N+](=O)[O-])c1`, in that order: 1.7 µM and 4.9 µM.
`O=C1c2cccnc2C(=O)c2c1c(C(=O)NCCCN1CCCCC1)c1ccccn21`: the GI50 was 1.42 µM and the TGI was determined as 6.71 µM.
Consider `COc1ccccc1-c1cc(=O)c2cc(C)cnc2[nH]1`, for which the TGI was greater than 100 µM.
In the case of `OCC1OC(n2cnc3c(N/N=C\c4ccccn4)ncnc32)C(O)C1O` (centres undefined), the GI50 is 0.235 µM and the TGI was found to be 1.44 µM.
For the molecule `COc1cc2c(cc1C1COc3cc4occc4cc3C1=O)OCO2` (centres undefined), the TGI was greater than 100 µM.
Regarding `O=C1/C(=C/c2ccccc2[N+](=O)[O-])Cc2ccccc21`, the GI50 is 1.21 µM and the TGI came to 2.68 µM.
